In PMC4979872, “Synthesis, fluorescence properties and the promising cytotoxicity of pyrene–derived aminophosphonates” (Beilstein Journal of Organic Chemistry, 2016):

Assays:
normal human lymphocytes = test: MTT cytotoxicity assay on normal human lymphocytes; type: cell-based; conditions: 24 h incubation, 5 to 600 µM, mean ± SEM of six experiments
From the text: (§1) The cytotoxic effects of dimethyl aminophosphonates 3Aa, 3Ab, 3Ac, 3Ad, 3Ai and dimethyl [hydroxy(pyren-1-yl)methyl]phosphonate (5A) were investigated with two human colorectal carcinoma cell lines: HT29 and HCT116 and also on the normal human lymphocytes. For this a standard MTT (3-(4,5-dimethylthiazol-2-yl)-2,5-diphenyltetrazolium bromide) test was used and results presented as IC50 values (i.e., the concentration of the compound that inhibits 50% growth). The activity of the tested compounds was studied in the concentration range from 5 to 600 µM. […]
(§2) 2.1. Materials and methods
(§3) MTT assay (3-(4,5-dimethylthiazol-2-yl)-2,5-diphenyltetrazolium bromide) facilitates the determination of the level of cell survival after the exposure of cells to potentially toxic substances. The cytotoxicity level of studied compounds was evaluated by determining the dose or concentration that induces a standard biological response. The assessment of the cytotoxic activity of the tested compounds was carried out based on IC50 values – the concentration of the compound which causes inhibition of cell proliferation by 50% as compared to the negative control. To determine the above concentration, was created graphs of cell viability expressed in percentages, depending on the concentrations of studied […]
(§4) MTT (3(4,5-dimethylthiazol-2-yl)-2,5-diphenyltetrazolium bromide), lauryl sulfate (SLS), N,N-dimethylformamide (DMF), dimethyl sulfoxide (DMSO), penicillin-streptomycin solution stabilized, MEM non-essential amino acids solution, Histopaque 1077, and buffered saline (PBS) were purchased from Sigma Chemical Co. Foetal bovine serum (FBS), phytohemagglutinin (PHA), RPMI 1640 medium and Trypsin-EDTA were supplied by […]
All other chemicals (chemical reagents, substrates, and solvents) were of the highest commercial grade available and were purchased from CytoGen and Sigma–Aldrich.
Lymphocytes were isolated from the peripheral blood of healthy, non-smoking donors of both sexes by centrifugation in a density gradient of Histopaque 1077 (15 min., 300 × g) (blood was obtained from the Blood Donation Center in Lodz, Poland). The cells were suspended in the culture medium containing RPMI 1640, inactivated FBS (15%), penicillin and streptomycin (1%) and PHA (1%). […]
The lymphocytes, HCT116 […]
and HT29 cells were cultured at 37 °C in a humidified atmosphere of 95% air and 5% CO2.
(§5) A MTT assay was used to assess cell survival after treatment with studied compounds. The MTT assay is a quantitative colorimetric method to determine cell proliferation after treatment with the tested compounds. It is widely used to estimate the cytotoxic effect of chemicals on different types of cells. MTT (3(4,5-dimethyl-2-thiazolyl)-2,5-diphenyl-2H-tetrazolium bromide) is a water-soluble tetrazolium salt, which is converted into an insoluble purple formazan by cleavage of the tertazolium ring by succinate dehydrogenase within the mitochondria. The formazan product is impermeable to the cell membranes and therefore it accumulates in living cells. The purple crystals were extracted into a solution for homogeneous staining and the absorbance was read on a spectrophotometer at 595 nm. The percent reduction of MTT was compared to controls (cells not exposed to tested compounds), which represented 100% MTT reduction. The assay was optimized for the cell lines and chemical compounds used in the experiments.
(§6) The cancer cells and human lymphocytes were grown for 24 h on 96-well plates at a density of 6–8 × 10^3 cells/well and 8 × 10^5 cells/well, respectively. Then the cells were treated with the tested compounds for 24 h incubation periods in a volume of 50 μl per well for the lymphocytes and 100 μl per well for the HCT116, HT29 cells. Subsequently, a fresh MTT solution (lymphocytes, HCT116 and HT29: 20 μl, 5 mg/ml in sterile PBS) was added to each well for the next 4 h. Purple crystals forming in the cancer cells after the reduction of MTT were dissolved by DMSO (100 μl/well). In the case of lymphocytes this was achieved by […]

[1] = system: HCT116 human colorectal carcinoma cell line; test: MTT cytotoxicity assay on HCT116 cells; type: cell-based; conditions: 24 h incubation, 5 to 600 µM, mean ± SEM of six experiments
From the text: as §1, §2, §3, §4
(§7) All other chemicals (chemical reagents, substrates, and solvents) were of the highest commercial grade available and were purchased from CytoGen and Sigma–Aldrich. […]
(§8) The human colorectal carcinoma cell line (HCT116) and the human colorectal adenocarcinoma cell line (HT29) were obtained from the American Type Culture Collection (ATCC, Rockville, USA). The HCT116 cells were cultured in RPMI 1640 supplemented with FBS (10%) and antibiotics (1%): penicillin and streptomycin. The HT29 cells were cultured in RPMI 1640 medium supplemented with FBS (10%), antibiotics (1%): penicillin and streptomycin, and MEM non-essential amino acids solution (1%). The lymphocytes, HCT116 and HT29 cells were cultured at 37 °C in a humidified atmosphere of 95% air and 5% CO2.
as §5
as §6, with “each” for “each well for the next 4 h. Purple crystals forming in the cancer cells after the reduction of MTT were dissolved by DMSO (100 μl/well). In the case of lymphocytes this was achieved by”
(§9) well for the next 4 h. […]

[2] = system: HT29 human colorectal adenocarcinoma cell line; test: MTT cytotoxicity assay on HT29 cells; type: cell-based; conditions: 24 h incubation, 5 to 600 µM, mean ± SEM of six experiments
From the text: as §1, §2, §3, §4, §7, §8, §5
as §6, with “each” for “each well for the next 4 h. Purple crystals forming in the cancer cells after the reduction of MTT were dissolved by DMSO (100 μl/well). In the case of lymphocytes this was achieved by”
as §9

Structure (SMILES) | melting point [°C] | IC50 (normal human lymphocytes; Homo sapiens, Lymphocyte, 24 h) [µM] | IC50 ([1]; Homo sapiens, HCT-116, 24 h) [µM] | IC50 ([2]; Homo sapiens, HT-29, 24 h) [µM] | IC50 (normal human lymphocytes) [µM] | IC50 [1] [µM] | IC50 [2] [µM]
O=P(OCc1ccccc1)(OCc1ccccc1)C(NCc1ccccc1)c1ccc2ccc3cccc4ccc1c2c34 (centres unmarked) | 100 to 101 | – | – | – | – | – | –
O=P(O)(O)C(NCc1ccccc1)c1ccc2ccc3cccc4ccc1c2c34 (centres unmarked) | 235 to 236 | – | – | – | – | – | –
COP(=O)(OC)C(NCc1ccccc1)c1ccc2ccc3cccc4ccc1c2c34 (centres unmarked) [Compound 3Aa] | – | 89.2 | 29 | 29.2 | – | – | –
COP(=O)(OC)C(Nc1ccccc1)c1ccc2ccc3cccc4ccc1c2c34 (centres unmarked) [Compound 3Ab] | 203 to 204 | 334 | 70.8 | 106 | – | – | –
COP(=O)(OC)C(Nc1ccc(C)cc1)c1ccc2ccc3cccc4ccc1c2c34 (centres unmarked) [Compound 3Ac, dimethyl N-(4-methylphenyl)amino(pyren-1-yl)methylphosphonate] | – | 17.5 | 15.9 | 15.8 | – | – | –
COc1ccc(NC(c2ccc3ccc4cccc5ccc2c3c45)P(=O)(OC)OC)cc1 (centres unmarked) [Compound 3Ad, dimethyl N-(4-methoxyphenyl)amino(pyren-1-yl)methylphosphonate] | – | ~230 | ~20 | ~20 | 231 | 20.8 | 24.2
COP(=O)(OC)C(Nc1cccc(C)c1)c1ccc2ccc3cccc4ccc1c2c34 (centres unmarked) [Compound 3Ai, dimethyl N-(m-methylphenyl)amino(pyren-1-yl)methylphosphonate] | 209 to 210 | 75.8 | 20.2 | 57.5 | – | – | –
Cc1ccc(NC(c2ccc3ccc4cccc5ccc2c3c45)P(=O)(O)O)cc1 (centres unmarked) [Compound 4c] | 210 to 211 | ~17 | ~15 | ~15 | – | – | –
COP(=O)(OC)C(O)c1ccc2ccc3cccc4ccc1c2c34 (centres unmarked) [Compound 5A, dimethyl hydroxy(pyren-1-yl)methylphosphonate] | – | 136 | 40.4 | 25.8 | – | – | –
